Experimental data from ChEMBL document CHEMBL1201862, “PubChem BioAssay data set” (2004).
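Protocol summary: plate cells (96-well), add compound at 5 concentrations, incubate 48 h, interpolate endpoints linearly. The concentration for 50% growth inhibition is given as GI50.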 Active and inactive are the calls of the source. No stated cut-off is given here; in the data, active = GI50 up to about 1.1 µM and inactive = higher.

Assays:
Assay in all cases: inhibition of tumour cell growth, NCI panel, 48 h
HCT-116 = test system: HCT-116
UO-31 = test system: UO-31
K562 = test system: K562
CCRF-CEM = test system: CCRF-CEM
M14 = test system: M14
LOX IMVI = test system: LOX IMVI
HOP-62 = test system: HOP-62
HT-29 = test system: HT-29
Hs-578T = test system: Hs-578T
786-0 = test system: 786-0
SK-MEL-2 = test system: SK-MEL-2
SK-MEL-28 = test system: SK-MEL-28
CAKI-1 = test system: CAKI-1
SK-MEL-5 = test system: SK-MEL-5
A549 = test system: A549
OVCAR-3 = test system: OVCAR-3
ACHN = test system: ACHN
TK-10 = test system: TK-10
SNB-75 = test system: SNB-75

Compound | GI50 (HCT-116) | GI50 (UO-31) | GI50 (K562) | GI50 (CCRF-CEM) | GI50 (M14) | GI50 (LOX IMVI) | GI50 (HOP-62) | GI50 (HT-29) | GI50 (Hs-578T) | GI50 (786-0) | GI50 (SK-MEL-2) | GI50 (SK-MEL-28) | GI50 (CAKI-1) | GI50 (SK-MEL-5) | GI50 (A549) | GI50 (OVCAR-3) | GI50 (ACHN) | GI50 (TK-10) | GI50 (SNB-75)
COc1cc2c(c(O)c1OC)C(=O)[C@@H]1CCC(=O)N1C2c1ccccc1 (stereo partly specified) | 66.8 µM (inactive) | 39.6 µM (inactive) | 38.6 µM (inactive) | 30.5 µM (inactive) | > 100 µM (inactive) | 97.1 µM (inactive) | > 100 µM (inactive) | 87.7 µM (inactive) | 40.5 µM (inactive) | > 100 µM (inactive) | > 100 µM (inactive) | > 100 µM (inactive) | > 100 µM (inactive) | > 10 µM (inactive) | 59 µM (inactive) | 65.6 µM (inactive) | 85.7 µM (inactive) | > 100 µM (inactive) | 35.6 µM (inactive)
S=C(Nc1ccc(Cl)cc1)SC1CCCCC1 | 25.6 µM (inactive) | 27 µM (inactive) | 36.1 µM (inactive) | 33.7 µM (inactive) | 19.7 µM (inactive) | 16.4 µM (inactive) | 27.7 µM (inactive) | 20.8 µM (inactive) | 31.8 µM (inactive) | 36.6 µM (inactive) | 17.6 µM (inactive) | 17.3 µM (inactive) | 15 µM (inactive) | 16.7 µM (inactive) | 19.2 µM (inactive) | 21.4 µM (inactive) | 17.5 µM (inactive) | 40.6 µM (inactive) | 25.2 µM (inactive)
CN1CC[C@]2(c3cccc(O)c3)CC(=O)/C(=C/c3ccccc3)[C@@H]1C2.[O-][Cl+3]([O-])([O-])O | 2.31 µM (inactive) | 2.51 µM (inactive) | 1.64 µM (inactive) | 2.13 µM (inactive) | 2.73 µM (inactive) | 1.94 µM (inactive) | 3.88 µM (inactive) | 2.62 µM (inactive) | 4.62 µM (inactive) | 2.44 µM (inactive) | 2.95 µM (inactive) | 3.06 µM (inactive) | 2.29 µM (inactive) | 3.12 µM (inactive) | 3.42 µM (inactive) | 1.97 µM (inactive) | 2.25 µM (inactive) | 13.9 µM (inactive) | 2 µM (inactive)
CCN1CC(C)Cn2c(=O)[nH]c3cc(Br)cc1c32 (stereo unspecified) | 29.9 µM (inactive) | 40.1 µM (inactive) | 2.91 µM (inactive) | 7.67 µM (inactive) | 34.1 µM (inactive) | 21.4 µM (inactive) | 30.5 µM (inactive) | 33.5 µM (inactive) | 11 µM (inactive) | 22.6 µM (inactive) | 23.9 µM (inactive) | 35.7 µM (inactive) | 13.9 µM (inactive) | 19.1 µM (inactive) | 25.6 µM (inactive) | 20.3 µM (inactive) | 13.1 µM (inactive) | 25 µM (inactive) | 11.4 µM (inactive)
O=S1(=O)c2ccccc2N2CCCc3cc(Cl)cc1c32 | > 100 µM (inactive) | > 100 µM (inactive) | > 100 µM (inactive) | > 100 µM (inactive) | > 100 µM (inactive) | > 100 µM (inactive) | 41.1 µM (inactive) | > 100 µM (inactive) | 27.4 µM (inactive) | 40.4 µM (inactive) | 44.2 µM (inactive) | > 100 µM (inactive) | 61.2 µM (inactive) | > 100 µM (inactive) | > 100 µM (inactive) | 67.5 µM (inactive) | > 100 µM (inactive) | > 10 µM (inactive) | 12.6 µM (inactive)
CC(=O)Oc1c(N2CCCCC2)c(C(=O)c2ccccc2)c(O)c2ccn(N(C)C)c12 | 9.51 µM (inactive) | 17.6 µM (inactive) | 34.4 µM (inactive) | 15.7 µM (inactive) | 21.7 µM (inactive) | 14.1 µM (inactive) | 27.2 µM (inactive) | 14.6 µM (inactive) | 28.8 µM (inactive) | 17.5 µM (inactive) | 25.2 µM (inactive) | 19.1 µM (inactive) | 15.4 µM (inactive) | 15.9 µM (inactive) | 12.4 µM (inactive) | 19.6 µM (inactive) | 18.5 µM (inactive) | 16.7 µM (inactive) | 13.2 µM (inactive)
Cc1cc(=O)c2ccccc2n1CCCCCCCCCCn1c(C)cc(=O)c2ccccc21 | 8.09 µM (inactive) | 12 µM (inactive) | 4.68 µM (inactive) | 12.1 µM (inactive) | 34.9 µM (inactive) | 5.53 µM (inactive) | > 100 µM (inactive) | 15.9 µM (inactive) | 23.8 µM (inactive) | 16.4 µM (inactive) | > 10 µM (inactive) | 20.8 µM (inactive) | 21.6 µM (inactive) | 0.64 µM (active) | 20 µM (inactive) | 37.3 µM (inactive) | 25.2 µM (inactive) | 14.1 µM (inactive) | 30.2 µM (inactive)
CN(C)CCCNC(=O)c1cc(NS(=O)(=O)c2ccc3c(c2)C(=O)c2ccccc2C3=O)cn1C | 51.3 µM (inactive) | 56.4 µM (inactive) | 30 µM (inactive) | 21.5 µM (inactive) | 22.3 µM (inactive) | 13.8 µM (inactive) | 37.8 µM (inactive) | 28.8 µM (inactive) | 76.4 µM (inactive) | 28.7 µM (inactive) | 40.5 µM (inactive) | 27.1 µM (inactive) | 67.6 µM (inactive) | 13.1 µM (inactive) | 35.9 µM (inactive) | 13.5 µM (inactive) | 14.6 µM (inactive) | 25.2 µM (inactive) | 30.8 µM (inactive)
Nc1nc(N)c(NC(=O)CCCO)c(=O)[nH]1 | > 100 µM (inactive) | > 100 µM (inactive) | > 100 µM (inactive) | > 100 µM (inactive) | > 100 µM (inactive) | > 100 µM (inactive) | > 100 µM (inactive) | > 100 µM (inactive) | > 100 µM (inactive) | > 100 µM (inactive) | > 100 µM (inactive) |  | > 100 µM (inactive) | > 100 µM (inactive) | > 100 µM (inactive) | > 100 µM (inactive) | > 100 µM (inactive) | > 100 µM (inactive) | > 100 µM (inactive)
COC(=O)/C(C#N)=C/c1cc(C(C)(C)C)c(O)c(C(C)(C)C)c1 | 2.66 µM (inactive) | 2.17 µM (inactive) | 2.59 µM (inactive) | 1.9 µM (inactive) | 3.12 µM (inactive) | 3.95 µM (inactive) | 3.15 µM (inactive) | 2.82 µM (inactive) | 3.55 µM (inactive) | 3.15 µM (inactive) | 1.73 µM (inactive) | 2.62 µM (inactive) | 2.89 µM (inactive) | 1.18 µM (inactive) | 2.64 µM (inactive) | 1.45 µM (inactive) | 2.77 µM (inactive) | 3.24 µM (inactive) | 3.3 µM (inactive)
OC1(c2ccccc2)CC2CCC(C1)N2CCCC1(c2ccc(F)cc2)OCCO1 (stereo unspecified) | > 100 µM (inactive) | 54.3 µM (inactive) | > 100 µM (inactive) | 3.66 µM (inactive) | 21 µM (inactive) | > 100 µM (inactive) | > 100 µM (inactive) | 36.5 µM (inactive) | > 100 µM (inactive) | 18.2 µM (inactive) | > 100 µM (inactive) | 36.1 µM (inactive) | > 100 µM (inactive) | 21.3 µM (inactive) | > 100 µM (inactive) | > 100 µM (inactive) | > 100 µM (inactive) | > 100 µM (inactive) | > 100 µM (inactive)
C=CC[C@H](N=C(SC)SC)C(=O)N1C(=O)N(C)[C@@H](C)[C@H]1c1ccccc1 | 33 µM (inactive) | 47.9 µM (inactive) | 29.6 µM (inactive) | 22.3 µM (inactive) | 34.9 µM (inactive) | 72.8 µM (inactive) | 46.5 µM (inactive) | 38.6 µM (inactive) | 21.3 µM (inactive) | 46.6 µM (inactive) | 30 µM (inactive) | 39.5 µM (inactive) | 25.1 µM (inactive) | 20 µM (inactive) | 35.3 µM (inactive) | 29.4 µM (inactive) | 49.4 µM (inactive) | 44.2 µM (inactive) | 36.4 µM (inactive)
O=C1C=C(NCCc2ccc(O)cc2)C(=O)C=C1NCCc1ccc(O)cc1 | 50 µM (inactive) | > 100 µM (inactive) | 38 µM (inactive) | 46.9 µM (inactive) |  | 35.1 µM (inactive) | 64 µM (inactive) | > 100 µM (inactive) | 85.3 µM (inactive) | > 100 µM (inactive) | > 100 µM (inactive) | > 100 µM (inactive) | > 100 µM (inactive) | > 100 µM (inactive) | > 100 µM (inactive) | > 100 µM (inactive) | > 100 µM (inactive) | > 100 µM (inactive) | 19.6 µM (inactive)
Cc1nn(C(=O)c2ccc(Cl)cc2)c2c1C(/C=C/c1ccccc1)SC(=N)N2 (stereo unspecified) | > 10 µM (inactive) |  | > 10 µM (inactive) | > 10 µM (inactive) | > 10 µM (inactive) | > 10 µM (inactive) | > 10 µM (inactive) | > 10 µM (inactive) | > 10 µM (inactive) | > 10 µM (inactive) | > 10 µM (inactive) | > 10 µM (inactive) | > 10 µM (inactive) | > 10 µM (inactive) | > 10 µM (inactive) | > 10 µM (inactive) | > 10 µM (inactive) | > 10 µM (inactive) | > 10 µM (inactive)
C1CCNCC1.CN(C)c1ccc(/C=C2/NC(=S)NC2=O)cc1 | 23.3 µM (inactive) | 44.5 µM (inactive) |  | 24.9 µM (inactive) | 68.1 µM (inactive) | 49 µM (inactive) | > 100 µM (inactive) | 34.6 µM (inactive) | > 100 µM (inactive) | > 100 µM (inactive) | > 100 µM (inactive) | 87.3 µM (inactive) | 62.5 µM (inactive) | 30.8 µM (inactive) | 46.8 µM (inactive) | 43.9 µM (inactive) | 64.7 µM (inactive) | 59 µM (inactive) | 49.7 µM (inactive)
